Measurements from publication PMC5218480 (PLoS ONE, 2017).

Test system: MV-4-11 cells
Assay: Gene expression microarray analysis (Affymetrix PrimeView) and GSEA
Assay type: cell-based, human
Parameters: RFU PODN (11730768_x_at) / Fold change /veh PODN (11730768_x_at) / RFU LINC00158 (11744669_a_at) / Fold change /veh LINC00158 (11744669_a_at) / RFU DUSP10 (11751237_a_at) / Fold change /veh DUSP10 (11751237_a_at) / RFU ID3 (11757404_x_at) / Fold change /veh ID3 (11757404_x_at) / RFU PLEKHG5 (11737974_s_at) / Fold change /veh PLEKHG5 (11737974_s_at) / RFU LRRC4B (11730491_at) / Fold change /veh LRRC4B (11730491_at) / RFU GIMAP4 (11747438_a_at) / Fold change /veh GIMAP4 (11747438_a_at) / RFU KRT8 (11758183_x_at) / Fold change /veh KRT8 (11758183_x_at) / RFU CNN1 (11734310_a_at) / Fold change /veh CNN1 (11734310_a_at) / RFU VPS37D (11726825_at) / Fold change /veh VPS37D (11726825_at) / RFU C10orf10 (11716522_x_at) / Fold change /veh C10orf10 (11716522_x_at) / RFU KIR2DL2 /// KIR2DL4 /// KIR2DL5A /// KIR2DL5B /// KIR2DS1 /// KIR2DS2 /// KIR2DS3 /// KIR2DS4 /// KIR3DL3 /// KIR3DL3 /// KIR3DS1 (11738374_at) / Fold change /veh KIR2DL2 /// KIR2DL4 /// KIR2DL5A /// KIR2DL5B /// KIR2DS1 /// KIR2DS2 /// KIR2DS3 /// KIR2DS4 /// KIR3DL3 /// KIR3DL3 /// KIR3DS1 (11738374_at) / RFU C1QL1 (11718748_at) / Fold change /veh C1QL1 (11718748_at) / RFU TMPRSS4 (11747572_a_at) / Fold change /veh TMPRSS4 (11747572_a_at) / RFU HAMP (11756126_x_at) / Fold change /veh HAMP (11756126_x_at) / RFU RNFT2 (11725882_a_at) / Fold change /veh RNFT2 (11725882_a_at) / RFU NR4A2 (11747474_a_at) / Fold change /veh NR4A2 (11747474_a_at) / RFU ABCC12 (11746883_a_at) / Fold change /veh ABCC12 (11746883_a_at) / RFU TMEM136 (11760407_x_at) / Fold change /veh TMEM136 (11760407_x_at) / RFU CLDN22 /// WWC2 (11732394_at) / Fold change /veh CLDN22 /// WWC2 (11732394_at) / RFU HLA-DPB1 (11760878_x_at) / Fold change /veh HLA-DPB1 (11760878_x_at) / RFU SPINT1 (11716480_a_at) / Fold change /veh SPINT1 (11716480_a_at) / RFU GAP43 (11754022_s_at) / Fold change /veh GAP43 (11754022_s_at) / RFU A4GNT (11735810_at) / Fold change /veh A4GNT (11735810_at) / RFU PRB3 (11715151_x_at) / Fold change /veh PRB3 (11715151_x_at) / RFU TUBB4B (11761932_at) / Fold change /veh TUBB4B (11761932_at) / RFU CAPN14 (11732068_a_at) / Fold change /veh CAPN14 (11732068_a_at) / RFU TMCC2 (11721928_a_at) / Fold change /veh TMCC2 (11721928_a_at) / RFU IRGQ (11745062_a_at) / Fold change /veh IRGQ (11745062_a_at) / RFU FAM174B (11720279_a_at) / Fold change /veh FAM174B (11720279_a_at) / RFU TMPRSS4 (11748680_a_at) / Fold change /veh TMPRSS4 (11748680_a_at) / RFU FAM212B (11763350_a_at) / Fold change /veh FAM212B (11763350_a_at) / RFU PLEKHG5 (11743358_a_at) / Fold change /veh PLEKHG5 (11743358_a_at) / RFU ZSCAN30 (11745921_a_at) / Fold change /veh ZSCAN30 (11745921_a_at) / RFU CMKLR1 (11741424_a_at) / Fold change /veh CMKLR1 (11741424_a_at) / RFU LOC101060620 /// MAPK8IP1 (11723275_at) / Fold change /veh LOC101060620 /// MAPK8IP1 (11723275_at) / RFU SPTSSB (11747773_x_at) / Fold change /veh SPTSSB (11747773_x_at) / RFU PRSS12 (11739890_at) / Fold change /veh PRSS12 (11739890_at) / RFU BIN1 (11741810_x_at) / Fold change /veh BIN1 (11741810_x_at) / RFU WNT11 (11732464_a_at) / Fold change /veh WNT11 (11732464_a_at) / RFU C10orf10 (11716521_a_at) / Fold change /veh C10orf10 (11716521_a_at) / RFU C5orf56 (11738089_at) / Fold change /veh C5orf56 (11738089_at) / RFU CYB561 (11721691_x_at) / Fold change /veh CYB561 (11721691_x_at) / RFU ANKRD19P (11752326_a_at) / Fold change /veh ANKRD19P (11752326_a_at) / RFU OR2T12 /// OR2T33 /// OR2T8 (11738714_s_at) / Fold change /veh OR2T12 /// OR2T33 /// OR2T8 (11738714_s_at) / RFU VCAN (11748164_a_at) / Fold change /veh VCAN (11748164_a_at) / RFU JSRP1 (11732532_at) / Fold change /veh JSRP1 (11732532_at) / RFU KRTAP10-11 (11738290_x_at) / Fold change /veh KRTAP10-11 (11738290_x_at) / RFU MYO3A (11730013_a_at) / Fold change /veh MYO3A (11730013_a_at) / RFU EBF3 (11725865_a_at) / Fold change /veh EBF3 (11725865_a_at) / RFU CAMK2N1 (11719241_x_at) / Fold change /veh CAMK2N1 (11719241_x_at) / RFU C5orf56 (11738088_a_at) / Fold change /veh C5orf56 (11738088_a_at) / RFU OLFML3 (11715873_a_at) / Fold change /veh OLFML3 (11715873_a_at) / RFU LOC100653217 /// NTM (11731650_a_at) / Fold change /veh LOC100653217 /// NTM (11731650_a_at) / RFU MAPK11 (11762145_a_at) / Fold change /veh MAPK11 (11762145_a_at) / RFU FIZ1 (11724087_x_at) / Fold change /veh FIZ1 (11724087_x_at) / RFU OASL (11726364_x_at) / Fold change /veh OASL (11726364_x_at) / RFU SOX15 (11748057_x_at) / Fold change /veh SOX15 (11748057_x_at) / RFU CD79A (11719716_a_at) / Fold change /veh CD79A (11719716_a_at) / RFU HIST1H1D (11736915_at) / Fold change /veh HIST1H1D (11736915_at) / RFU CASKIN2 (11723855_a_at) / Fold change /veh CASKIN2 (11723855_a_at) / RFU LOC730098 (11760151_x_at) / Fold change /veh LOC730098 (11760151_x_at) / RFU OR4N2 (11742367_at) / Fold change /veh OR4N2 (11742367_at) / RFU PRRT2 (11749266_a_at) / Fold change /veh PRRT2 (11749266_a_at) / RFU SNX32 (11753110_a_at) / Fold change /veh SNX32 (11753110_a_at) / RFU CDHR5 (11726645_a_at) / Fold change /veh CDHR5 (11726645_a_at) / RFU RCAN1 (11760418_a_at) / Fold change /veh RCAN1 (11760418_a_at) / RFU FAM167A (11723789_a_at) / Fold change /veh FAM167A (11723789_a_at) / RFU FAM26E (11764081_at) / Fold change /veh FAM26E (11764081_at) / RFU ISYNA1 (11749810_s_at) / Fold change /veh ISYNA1 (11749810_s_at) / RFU ACY1 (11761880_at) / Fold change /veh ACY1 (11761880_at) / RFU 11764098_at / Fold change /veh 11764098_at / RFU SAMD14 (11745864_x_at) / Fold change /veh SAMD14 (11745864_x_at) / RFU NPB (11741838_a_at) / Fold change /veh NPB (11741838_a_at) / RFU TMPRSS6 (11731388_a_at) / Fold change /veh TMPRSS6 (11731388_a_at) / RFU KRTAP10-2 (11738614_at) / Fold change /veh KRTAP10-2 (11738614_at) / RFU ARHGAP8 /// PRR5-ARHGAP8 (11727945_x_at) / Fold change /veh ARHGAP8 /// PRR5-ARHGAP8 (11727945_x_at) / RFU KRTAP5-7 /// NADSYN1 (11734609_at) / Fold change /veh KRTAP5-7 /// NADSYN1 (11734609_at) / RFU RASL12 (11751679_a_at) / Fold change /veh RASL12 (11751679_a_at) / RFU CDKN2B (11736163_a_at) / Fold change /veh CDKN2B (11736163_a_at) / RFU PRF1 (11729649_at) / Fold change /veh PRF1 (11729649_at) / RFU, ZNF638 /// ZNF638-IT1 / Fold change vs veh, ZNF638 /// ZNF638-IT1 / RFU, PANK3 / Fold change vs veh, PANK3 / RFU, SH3YL1 / Fold change vs veh, SH3YL1 / RFU, ZEB2 / Fold change vs veh, ZEB2 / RFU, NRIP1 / Fold change vs veh, NRIP1 / RFU, PTTG1IP / Fold change vs veh, PTTG1IP / RFU, CAPN2 / Fold change vs veh, CAPN2 / RFU, MED14 / Fold change vs veh, MED14 / RFU, SNORA58 / Fold change vs veh, SNORA58 / RFU, C1orf63 / Fold change vs veh, C1orf63 / RFU, LRRFIP1 / Fold change vs veh, LRRFIP1 / RFU, NDUFAF7 / Fold change vs veh, NDUFAF7 / RFU, SLC12A2 / Fold change vs veh, SLC12A2 / RFU, IBTK / Fold change vs veh, IBTK / RFU, ESF1 / Fold change vs veh, ESF1 / Fold change vs veh, TMEM50B / RFU, TAOK1 / Fold change vs veh, TAOK1 / RFU, ACBD3 / Fold change vs veh, ACBD3 / RFU, TMA16 / Fold change vs veh, TMA16 / RFU, RWDD3 / Fold change vs veh, RWDD3 / RFU, BCAT1 / Fold change vs veh, BCAT1 / RFU, EDEM3 / Fold change vs veh, EDEM3 / RFU, TMEM33 / Fold change vs veh, TMEM33 / RFU, WDR75 / Fold change vs veh, WDR75 / RFU, AHCTF1 / Fold change vs veh, AHCTF1 / RFU, TFRC / Fold change vs veh, TFRC / RFU, ZDHHC17 / Fold change vs veh, ZDHHC17 / RFU, NOM1 / Fold change vs veh, NOM1 / RFU, ARL8B / Fold change vs veh, ARL8B / RFU, ZBTB11 / Fold change vs veh, ZBTB11 / RFU, TAMM41 / Fold change vs veh, TAMM41 / RFU, KIAA1704 /// LOC100996395 / Fold change vs veh, KIAA1704 /// LOC100996395 / RFU, ING1 / Fold change vs veh, ING1 / RFU, TRMT61B / Fold change vs veh, TRMT61B / RFU, FUBP3 / Fold change vs veh, FUBP3 / RFU, TP53 / Fold change vs veh, TP53 / RFU, TNKS2 / Fold change vs veh, TNKS2 / RFU, ZFP14 / Fold change vs veh, ZFP14 / RFU, ACTR2 / Fold change vs veh, ACTR2 / RFU, PPP3R1 / Fold change vs veh, PPP3R1 / RFU, PIK3R1 / Fold change vs veh, PIK3R1 / RFU, HNRNPA1 / Fold change vs veh, HNRNPA1 / RFU, RNF170 / Fold change vs veh, RNF170 / RFU, ZNF28 / Fold change vs veh, ZNF28 / RFU, RNGTT / Fold change vs veh, RNGTT / RFU, OGT / Fold change vs veh, OGT / RFU, BRD1 / Fold change vs veh, BRD1 / RFU, MARS / Fold change vs veh, MARS / RFU, ZNF655 / Fold change vs veh, ZNF655 / RFU, FAHD1 / Fold change vs veh, FAHD1 / RFU, BDP1 / Fold change vs veh, BDP1 / RFU, LRRCC1 / Fold change vs veh, LRRCC1 / RFU, ARID1A / Fold change vs veh, ARID1A / RFU, ZNF146 / Fold change vs veh, ZNF146 / RFU, ZNF330 / Fold change vs veh, ZNF330 / RFU, GPN3 / Fold change vs veh, GPN3 / RFU, C9orf123 / Fold change vs veh, C9orf123 / RFU, N4BP2L2 / Fold change vs veh, N4BP2L2 / RFU, ARFIP1 / Fold change vs veh, ARFIP1 / RFU, FAM179B / Fold change vs veh, FAM179B / RFU, BCL10 / Fold change vs veh, BCL10 / RFU, UHRF1BP1L / Fold change vs veh, UHRF1BP1L / RFU, BET1 / Fold change vs veh, BET1 / RFU, CNOT2 / Fold change vs veh, CNOT2 / RFU, ZNF268 / Fold change vs veh, ZNF268 / Fold change vs veh, ZNF507 / RFU, DGCR2 / Fold change vs veh, DGCR2 / RFU, WDSUB1 / Fold change vs veh, WDSUB1 / Fold change vs veh, HSP90B1 /// MIR3652 / RFU, ADSS / Fold change vs veh, ADSS / RFU, GK / Fold change vs veh, GK / RFU, ZNF148 / Fold change vs veh, ZNF148 / RFU, TAF9 / Fold change vs veh, TAF9 / RFU, SLC1A5 / Fold change vs veh, SLC1A5 / RFU, SLMO2 / Fold change vs veh, SLMO2 / RFU, ABCC4 / Fold change vs veh, ABCC4 / RFU, LOC101060439 /// RAP1B / Fold change vs veh, LOC101060439 /// RAP1B / RFU, RFX7 / Fold change vs veh, RFX7 / RFU, GTPBP10 / Fold change vs veh, GTPBP10 / RFU, CNEP1R1 / Fold change vs veh, CNEP1R1 / RFU, BIVM-ERCC5 /// ERCC5 / Fold change vs veh, BIVM-ERCC5 /// ERCC5 / RFU, ILF3 / Fold change vs veh, ILF3 / RFU 11762660_at / Fold change /veh 11762660_at / RFU VCAN (11757783_s_at) / Fold change /veh VCAN (11757783_s_at) / RFU DDX43 (11728927_at) / Fold change /veh DDX43 (11728927_at) / RFU KRT8 (11758188_x_at) / Fold change /veh KRT8 (11758188_x_at) / RFU NKD1 (11759106_at) / Fold change /veh NKD1 (11759106_at) / RFU SRD5A1 (11742802_a_at) / Fold change /veh SRD5A1 (11742802_a_at) / RFU TPSAB1 /// TPSB2 (11721975_s_at) / Fold change /veh TPSAB1 /// TPSB2 (11721975_s_at) / RFU GSTM3 (11746129_a_at) / Fold change /veh GSTM3 (11746129_a_at) / RFU IL23R (11737362_x_at) / Fold change /veh IL23R (11737362_x_at) / RFU TMEM51 (11727254_a_at) / Fold change /veh TMEM51 (11727254_a_at) / RFU PIWIL2 (11732686_x_at) / Fold change /veh PIWIL2 (11732686_x_at) / RFU ORM1 (11744905_x_at) / Fold change /veh ORM1 (11744905_x_at) / RFU CCDC152 (11743942_at) / Fold change /veh CCDC152 (11743942_at) / RFU ECM1 (11717891_a_at) / Fold change /veh ECM1 (11717891_a_at) / RFU IL23R (11748794_a_at) / Fold change /veh IL23R (11748794_a_at) / RFU TNFAIP8L3 (11732012_x_at) / Fold change /veh TNFAIP8L3 (11732012_x_at) / RFU MBOAT4 (11741988_at) / Fold change /veh MBOAT4 (11741988_at) / RFU 11764193_at / Fold change /veh 11764193_at / RFU TMEM53 (11763286_at) / Fold change /veh TMEM53 (11763286_at) / RFU MAGEB2 (11727129_at) / Fold change /veh MAGEB2 (11727129_at) / RFU TMEM200A (11744735_a_at) / Fold change /veh TMEM200A (11744735_a_at) / RFU CCDC152 (11751479_a_at) / Fold change /veh CCDC152 (11751479_a_at) / RFU FAM211A (11726209_a_at) / Fold change /veh FAM211A (11726209_a_at) / RFU RGS16 (11746705_a_at) / Fold change /veh RGS16 (11746705_a_at) / RFU VCAN (11755009_s_at) / Fold change /veh VCAN (11755009_s_at) / RFU RHOB (11743442_s_at) / Fold change /veh RHOB (11743442_s_at) / RFU RGS16 (11720943_a_at) / Fold change /veh RGS16 (11720943_a_at) / RFU RGS16 (11720944_at) / Fold change /veh RGS16 (11720944_at) / RFU, VPS4B / Fold change vs veh, VPS4B / RFU, CREB1 / Fold change vs veh, CREB1 / RFU, DNAJC13 / Fold change vs veh, DNAJC13 / RFU, GNAQ / Fold change vs veh, GNAQ / RFU, CDK5R1 / Fold change vs veh, CDK5R1 / RFU, ZRANB3 / Fold change vs veh, ZRANB3 / RFU, CUL4A / Fold change vs veh, CUL4A / RFU, CCNY / Fold change vs veh, CCNY / RFU, UFL1 / Fold change vs veh, UFL1 / RFU, COG3 / Fold change vs veh, COG3 / RFU, DIAPH2 / Fold change vs veh, DIAPH2 / RFU, SKA2 / Fold change vs veh, SKA2 / RFU, AFF3 / Fold change vs veh, AFF3 / RFU, LMF1 / Fold change vs veh, LMF1 / RFU, IPO11 / Fold change vs veh, IPO11 / RFU, DFFB / Fold change vs veh, DFFB / RFU, FOXP1 / Fold change vs veh, FOXP1 / RFU, CARD8 / Fold change vs veh, CARD8 / RFU, STRN3 / Fold change vs veh, STRN3 / RFU, ADK / Fold change vs veh, ADK / RFU, RASSF2 / Fold change vs veh, RASSF2 / RFU, WIPF1 / Fold change vs veh, WIPF1 / RFU, LARP1B / Fold change vs veh, LARP1B / RFU, RASA1 / Fold change vs veh, RASA1 / RFU, RB1 / Fold change vs veh, RB1 / RFU, PPFIA1 / Fold change vs veh, PPFIA1 / RFU, MAT2A / Fold change vs veh, MAT2A / RFU, CCT5 / Fold change vs veh, CCT5 / RFU, WDR92 / Fold change vs veh, WDR92 / RFU, CUX1 / Fold change vs veh, CUX1 / RFU, TTC7A / Fold change vs veh, TTC7A / RFU, TMEM135 / Fold change vs veh, TMEM135 / RFU, DEPTOR / Fold change vs veh, DEPTOR / RFU, CPM / Fold change vs veh, CPM / RFU, DNAJB6 / Fold change vs veh, DNAJB6 / RFU, CACNA2D3 / Fold change vs veh, CACNA2D3 / RFU, DTX4 / Fold change vs veh, DTX4 / RFU, TFCP2 / Fold change vs veh, TFCP2 / RFU, GMCL1 /// GMCL1P1 / Fold change vs veh, GMCL1 /// GMCL1P1 / RFU, AEBP2 / Fold change vs veh, AEBP2 / RFU, SNHG1 /// SNORD22 /// SNORD25 /// SNORD26 /// SNORD27 /// SNORD28 /// SNORD29 /// SNORD31 / Fold change vs veh, SNHG1 /// SNORD22 /// SNORD25 /// SNORD26 /// SNORD27 /// SNORD28 /// SNORD29 /// SNORD31 / Fold change (Aza/veh), C12orf56 (ProbeSet 11735607_a_at) / Fold change (ACY-1035/veh), C12orf56 (ProbeSet 11735607_a_at) / Fold change (Aza/veh), FGFR1OP (ProbeSet 11751329_s_at) / Fold change (ACY-1035/veh), FGFR1OP (ProbeSet 11751329_s_at) / Fold change (Aza/veh), VPS36 (ProbeSet 11739960_a_at) / Fold change (ACY-1035/veh), VPS36 (ProbeSet 11739960_a_at) / RFU SYPL1 (11715823_x_at) / Fold change /veh SYPL1 (11715823_x_at) / RFU IGFBP7 (11715501_s_at) / Fold change /veh IGFBP7 (11715501_s_at) / RFU REEP3 (11722064_at) / Fold change /veh REEP3 (11722064_at) / RFU IGLL1 (11728026_x_at) / Fold change /veh IGLL1 (11728026_x_at): dose or concentration left out as unconfirmed
Conditions: MV-4-11 cells, 48 hours

Nc1ncn([C@@H]2O[C@H](CO)[C@@H](O)[C@H]2O)c(=O)n1 [azacitidine]
Fold change /veh VCAN (11748164_a_at): 1.17
